Assay results from PMC4734667 (PLoS ONE, 2016).
Converted amounts (≈) assume the structure as drawn. “And” between values parts separate entries of the source, which are not always exact repeats. Equal entries are not always repeated. “Also recorded” adds a separate entry of the source. Where two headings read alike, the source gives them in different places.

How the values were obtained:
human GluN2B = target: T1, human GluN2B (Homo sapiens, UniProt Q05586+Q13224); test: Ca2+ fluorescence (fluo-8) assay in HEK cells expressing GluN2B; assay type: cell-based; details: for inhibition at 10 µM: HEK293, 10 μM compound, negative = increase in Ca2+ response, read-out: GluN2B % Inhib. @ 10 μM ± SEM (n)
T1 construct: expressed in transfected cells; host or cells: HEK cells
T1 sequence (Q13224 27-1484, other chains not shown): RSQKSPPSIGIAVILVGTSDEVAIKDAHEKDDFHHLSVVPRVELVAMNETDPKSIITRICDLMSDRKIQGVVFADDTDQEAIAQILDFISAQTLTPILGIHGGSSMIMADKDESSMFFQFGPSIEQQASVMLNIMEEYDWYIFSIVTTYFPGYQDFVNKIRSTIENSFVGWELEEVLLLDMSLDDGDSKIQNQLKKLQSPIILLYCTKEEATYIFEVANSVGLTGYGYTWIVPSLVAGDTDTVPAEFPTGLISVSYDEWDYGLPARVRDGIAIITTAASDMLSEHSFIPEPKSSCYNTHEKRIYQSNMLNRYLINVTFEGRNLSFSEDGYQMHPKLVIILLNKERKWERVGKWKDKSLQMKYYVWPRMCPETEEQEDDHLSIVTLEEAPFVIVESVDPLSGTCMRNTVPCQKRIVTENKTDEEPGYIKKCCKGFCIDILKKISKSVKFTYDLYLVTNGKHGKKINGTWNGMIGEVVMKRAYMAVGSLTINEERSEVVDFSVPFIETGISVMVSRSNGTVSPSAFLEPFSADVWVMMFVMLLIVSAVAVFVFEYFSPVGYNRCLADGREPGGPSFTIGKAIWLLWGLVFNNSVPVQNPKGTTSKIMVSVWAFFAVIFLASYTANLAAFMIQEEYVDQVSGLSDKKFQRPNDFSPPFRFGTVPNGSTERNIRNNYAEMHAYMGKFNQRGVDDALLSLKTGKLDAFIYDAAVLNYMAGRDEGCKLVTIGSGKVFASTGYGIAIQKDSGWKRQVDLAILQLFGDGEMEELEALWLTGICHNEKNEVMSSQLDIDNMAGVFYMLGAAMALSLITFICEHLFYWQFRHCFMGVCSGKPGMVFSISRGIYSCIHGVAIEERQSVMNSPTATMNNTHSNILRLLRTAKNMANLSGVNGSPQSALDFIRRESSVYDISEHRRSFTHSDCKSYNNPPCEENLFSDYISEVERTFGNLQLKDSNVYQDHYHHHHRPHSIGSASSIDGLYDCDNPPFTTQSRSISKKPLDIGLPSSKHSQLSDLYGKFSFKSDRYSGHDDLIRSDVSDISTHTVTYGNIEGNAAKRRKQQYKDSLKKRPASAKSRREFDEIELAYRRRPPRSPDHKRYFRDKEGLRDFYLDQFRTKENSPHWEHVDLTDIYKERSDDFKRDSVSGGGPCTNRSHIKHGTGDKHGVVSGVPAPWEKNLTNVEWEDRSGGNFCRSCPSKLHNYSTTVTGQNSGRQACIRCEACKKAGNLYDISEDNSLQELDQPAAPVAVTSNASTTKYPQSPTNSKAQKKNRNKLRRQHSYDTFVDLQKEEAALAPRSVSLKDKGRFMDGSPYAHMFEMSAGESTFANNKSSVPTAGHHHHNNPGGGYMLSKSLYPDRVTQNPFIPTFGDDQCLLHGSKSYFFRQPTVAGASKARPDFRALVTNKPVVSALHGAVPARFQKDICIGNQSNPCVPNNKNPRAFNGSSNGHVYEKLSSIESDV

human GluN2D = target: T2, human GluN2D (Homo sapiens, UniProt O15399+Q05586); test: Ca2+ fluorescence (fluo-8) assay in HEK cells expressing GluN2D; assay type: cell-based; details: for inhibition at 10 µM: HEK293, 10 μM compound, negative = increase in Ca2+ response, read-out: GluN2D % Inhib. @ 10 μM ± SEM (n)
T2 construct: expressed in transfected cells; host or cells: HEK cells
T2 sequence (O15399 28-1336, other chains not shown): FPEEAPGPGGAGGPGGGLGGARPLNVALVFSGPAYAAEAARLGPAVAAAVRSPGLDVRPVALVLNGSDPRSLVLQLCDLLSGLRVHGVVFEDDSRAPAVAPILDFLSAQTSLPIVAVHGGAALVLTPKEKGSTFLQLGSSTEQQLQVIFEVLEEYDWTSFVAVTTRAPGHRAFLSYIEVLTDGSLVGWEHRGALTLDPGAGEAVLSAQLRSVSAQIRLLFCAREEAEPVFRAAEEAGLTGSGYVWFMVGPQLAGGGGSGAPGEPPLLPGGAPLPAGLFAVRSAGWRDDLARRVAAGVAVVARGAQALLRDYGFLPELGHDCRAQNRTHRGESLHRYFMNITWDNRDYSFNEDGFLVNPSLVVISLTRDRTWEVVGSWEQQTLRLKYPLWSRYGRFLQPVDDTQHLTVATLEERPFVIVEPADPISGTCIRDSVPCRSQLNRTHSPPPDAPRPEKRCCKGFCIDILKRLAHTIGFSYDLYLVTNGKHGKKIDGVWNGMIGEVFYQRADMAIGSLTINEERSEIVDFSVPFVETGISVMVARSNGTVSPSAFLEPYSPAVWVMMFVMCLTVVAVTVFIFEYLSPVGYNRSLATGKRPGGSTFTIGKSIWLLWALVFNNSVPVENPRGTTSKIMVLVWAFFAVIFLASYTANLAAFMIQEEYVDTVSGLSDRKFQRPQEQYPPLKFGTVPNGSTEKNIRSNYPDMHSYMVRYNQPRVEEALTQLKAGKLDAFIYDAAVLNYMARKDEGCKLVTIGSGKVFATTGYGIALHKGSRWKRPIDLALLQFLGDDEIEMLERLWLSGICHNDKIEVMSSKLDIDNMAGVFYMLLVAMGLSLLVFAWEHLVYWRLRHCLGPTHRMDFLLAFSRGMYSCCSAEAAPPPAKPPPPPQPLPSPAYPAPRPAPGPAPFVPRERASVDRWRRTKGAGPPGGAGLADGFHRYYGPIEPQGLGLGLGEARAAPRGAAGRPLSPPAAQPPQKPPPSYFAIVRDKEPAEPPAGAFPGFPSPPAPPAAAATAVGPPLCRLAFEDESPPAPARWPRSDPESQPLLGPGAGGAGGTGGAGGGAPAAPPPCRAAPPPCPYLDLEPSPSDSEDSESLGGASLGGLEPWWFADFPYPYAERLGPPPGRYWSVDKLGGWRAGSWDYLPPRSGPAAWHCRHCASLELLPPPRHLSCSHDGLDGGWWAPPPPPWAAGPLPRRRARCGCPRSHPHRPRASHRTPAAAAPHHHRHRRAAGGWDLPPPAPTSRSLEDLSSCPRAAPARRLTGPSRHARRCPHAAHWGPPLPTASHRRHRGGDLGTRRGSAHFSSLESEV

human GluN2A = target: T3, human GluN2A (Homo sapiens, UniProt Q05586+Q12879); test: Ca2+ fluorescence (fluo-8) assay in HEK cells expressing GluN2A; assay type: cell-based; details: for IC50: read-out: GluN2A IC50 (nM) ± SEM (n); for inhibition at 10 µM: HEK293, read-out: inhibition of GluN2A activity at 10 μM, 10 μM compound, HEK cell assay
T3 construct: host or cells: HEK293, tetracycline-induced
T3 sequence (Q12879 23-1464, other chains not shown): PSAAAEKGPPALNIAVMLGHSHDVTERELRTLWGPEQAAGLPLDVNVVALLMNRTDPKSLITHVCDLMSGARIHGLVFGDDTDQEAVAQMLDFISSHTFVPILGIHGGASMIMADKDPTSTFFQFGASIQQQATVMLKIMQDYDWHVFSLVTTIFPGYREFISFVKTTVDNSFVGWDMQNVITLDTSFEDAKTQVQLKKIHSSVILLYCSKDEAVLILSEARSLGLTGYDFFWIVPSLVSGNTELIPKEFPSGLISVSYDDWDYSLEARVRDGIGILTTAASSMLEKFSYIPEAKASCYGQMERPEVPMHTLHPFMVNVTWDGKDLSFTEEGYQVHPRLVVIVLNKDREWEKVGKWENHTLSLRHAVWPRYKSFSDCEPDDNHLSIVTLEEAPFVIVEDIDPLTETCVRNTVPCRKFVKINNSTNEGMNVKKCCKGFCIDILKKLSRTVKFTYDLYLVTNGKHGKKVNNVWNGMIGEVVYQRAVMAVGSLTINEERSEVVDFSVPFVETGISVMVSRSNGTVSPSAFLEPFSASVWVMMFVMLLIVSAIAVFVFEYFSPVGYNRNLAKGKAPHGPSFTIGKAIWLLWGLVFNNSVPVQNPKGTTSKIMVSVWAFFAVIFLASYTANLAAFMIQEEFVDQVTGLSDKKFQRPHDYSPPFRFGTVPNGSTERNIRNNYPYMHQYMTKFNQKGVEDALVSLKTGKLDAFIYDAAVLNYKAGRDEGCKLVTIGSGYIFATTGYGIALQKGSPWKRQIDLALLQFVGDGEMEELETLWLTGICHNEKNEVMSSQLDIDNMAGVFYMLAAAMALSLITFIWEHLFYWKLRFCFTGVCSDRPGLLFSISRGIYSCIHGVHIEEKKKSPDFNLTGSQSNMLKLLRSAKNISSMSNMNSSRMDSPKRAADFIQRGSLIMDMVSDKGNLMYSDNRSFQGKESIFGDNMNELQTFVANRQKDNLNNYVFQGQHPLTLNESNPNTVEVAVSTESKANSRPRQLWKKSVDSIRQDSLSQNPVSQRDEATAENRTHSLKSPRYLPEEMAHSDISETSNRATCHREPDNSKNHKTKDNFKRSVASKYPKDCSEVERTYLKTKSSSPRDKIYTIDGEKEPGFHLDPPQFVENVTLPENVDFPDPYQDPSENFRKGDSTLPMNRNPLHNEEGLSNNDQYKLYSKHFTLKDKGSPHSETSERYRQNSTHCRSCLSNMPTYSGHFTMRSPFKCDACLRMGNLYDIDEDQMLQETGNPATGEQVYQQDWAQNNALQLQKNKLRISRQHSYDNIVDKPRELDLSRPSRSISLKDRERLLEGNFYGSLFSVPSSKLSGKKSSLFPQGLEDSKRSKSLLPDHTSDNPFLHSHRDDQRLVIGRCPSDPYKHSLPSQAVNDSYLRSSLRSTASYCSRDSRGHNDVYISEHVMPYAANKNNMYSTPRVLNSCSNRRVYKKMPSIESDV
Description: HEK293 cells expressing the human GRIN1/GRIN2A genes (Chantest Catalog #: CT6120) were grown as an adherent monolayer at 37°C, 5% CO2 in DMEM/Ham’s F12 + 10% tetracycline-screened FBS (Hyclone SH3007.03T) and 500 μg/ml G418. […] To prepare the cells for an experiment, they were rinsed with Dulbecco’s PBS (Ca^2+ and Mg^2+ free) and detached from the flask with TrypLE™ Express (Life Technologies, Carlsbad, CA) using the manufacturer’s recommended methods. Cells collected from the flask were washed twice in Ca^2+/Mg^2+-free Hanks Balanced Salt Solution + 20 mM HEPES (HBSS), and counted and assessed for viability with trypan blue. Washed cells were then dye-loaded by resuspending in Fluo-8/AM calcium sensitive dye plus Component B (AAT Bioquest, Sunnyvale, CA) diluted in HBSS. […] The cell plates were centrifuged at 200 x g, for 2 minutes at 21°C, to create a monolayer of cells at the bottom of the wells.
To initiate an assay, 10 μl of test compound or buffer was added to each well of the cell plate and pre-incubated for 10 minutes in the dark. After 10 minutes, the cell plate was placed in a FDSS 6000 plate reader (Hamamatsu Photonics, Middlesex, NJ); baseline fluorescence readings were collected for 20 seconds. Next, 25 μl of agonist solution (3 μM glutamate, 3 μM glycine, and 1 mM Ca^2+ in HBSS) was added and the change in fluorescence was recorded for 3 minutes.
Results were calculated by computing the ratio of maximum fluorescence achieved during agonist-addition phase vs. baseline fluorescence.

NMDA receptor = NMDA receptor (Rattus norvegicus, UniProt P35439+Q00959); test: NMDA receptor-mediated fEPSPs in rat hippocampal slices (CA1, MEA); assay type: cell-based; details: 30 μM D-AP5
Description: Multi-electrode arrays (MEA) technology was used in the recording of hippocampal slices from 3 to 4 week-old male and female Sprague- Dawley rats (Elevage Janvier, Le Genest St Isle, France).
The rats were sacrificed by fast decapitation, without previous anesthesia. The brain was quickly removed and soaked in ice-cold oxygenated buffer with the following composition in mM: KCl 2, NaH2PO4 1.2, MgCl2 7, CaCl2 0.5, NaHCO3 26, glucose 11, and saccharose 250. […] Slice were placed in the center of a 3D-MEA to cover the electrode field (1.4 mm^2) and then immobilized with a netting ballast. […] NBQX (10 μM) was added to inhibit AMPA receptors. The bath was ground connected with a 1 M NaCl-Agar bridge.
All data were recorded with a MEA set-up from Multi Channel Systems MCS GmbH (Reutlingen, Germany) composed of a 4-channel stimulus generator and a 60-channel amplifier head-stage connected to a 60-channel A/D card. […]
Following visual observation through a CCD camera, one of the electrodes identified in the CA3 field (at CA3/CA1 border) was disconnected from its amplifier and used to stimulate Schaeffer collaterals. […] Simultaneous evoked field potentials were recorded from 3 to 6 electrodes in the CA1 stratum radiatum region, corresponding to the physiological propagation of the stimulus along the Schaffer collateral pathway. […]

[1] = test system: panel of receptors and enzymes relevant to CNS pharmacology (CEREP-80); test: CEREP-80 panel ligand binding, remainder of the panel; details: 1 μM
Excerpt: […]. […] […]

5-HT2A = target: T4, 5-HT2A (Homo sapiens, UniProt P28223); test: CEREP-80 panel ligand binding, 5-HT2A; details: read-out: inhibition of 5-HT2A agonist binding
T4 construct: CEREP (panel CEREP-80)
T4 sequence (P28223 whole entry): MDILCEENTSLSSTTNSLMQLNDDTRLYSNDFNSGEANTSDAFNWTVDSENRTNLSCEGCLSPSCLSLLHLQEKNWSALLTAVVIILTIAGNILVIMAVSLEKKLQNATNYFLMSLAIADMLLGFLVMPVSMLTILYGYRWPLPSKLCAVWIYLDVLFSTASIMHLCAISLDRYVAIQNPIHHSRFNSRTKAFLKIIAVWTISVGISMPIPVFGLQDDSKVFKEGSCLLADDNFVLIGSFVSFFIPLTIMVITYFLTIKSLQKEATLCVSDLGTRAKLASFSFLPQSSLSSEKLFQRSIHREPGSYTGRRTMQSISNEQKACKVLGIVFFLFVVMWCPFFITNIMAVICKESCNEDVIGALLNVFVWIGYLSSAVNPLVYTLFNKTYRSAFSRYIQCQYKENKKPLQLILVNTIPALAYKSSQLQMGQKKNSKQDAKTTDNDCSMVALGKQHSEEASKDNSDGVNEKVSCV

EP4 = target: T5, EP4 (Homo sapiens, UniProt P35408); test: CEREP-80 panel ligand binding, EP4; details: read-out: inhibition of EP4 agonist binding
T5 construct: CEREP (panel CEREP-80)

5-HT1B = target: T6, 5-HT1B (Rattus norvegicus, UniProt P28564); test: CEREP-80 panel ligand binding, 5-HT1B; details: read-out: inhibition of 5-HT1B antagonist binding
T6 construct: CEREP (panel CEREP-80)
T6 sequence (P28564 whole entry): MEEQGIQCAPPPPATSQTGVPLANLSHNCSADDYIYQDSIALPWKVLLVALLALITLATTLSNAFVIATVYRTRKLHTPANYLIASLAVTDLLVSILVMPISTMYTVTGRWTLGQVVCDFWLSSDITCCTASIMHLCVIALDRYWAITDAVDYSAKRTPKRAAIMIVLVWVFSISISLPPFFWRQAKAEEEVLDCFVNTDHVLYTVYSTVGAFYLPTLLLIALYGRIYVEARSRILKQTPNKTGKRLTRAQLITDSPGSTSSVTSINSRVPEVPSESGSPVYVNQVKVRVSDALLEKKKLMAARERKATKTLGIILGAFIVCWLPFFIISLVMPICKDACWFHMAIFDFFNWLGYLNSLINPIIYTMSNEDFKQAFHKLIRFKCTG

Kinetic solubility = assay type: physicochemical; details: phosphate buffered saline, aqueous buffer, kinetic from dmso stock; in solution by HPLC after dissolution in DMSO and addition to saline
Description: Compounds were prepared as stock solutions at 20 mM in DMSO and diluted in DMSO to give a range of test concentrations 100-fold greater than final. Compounds were diluted 100-fold into phosphate buffered saline and incubated during mild shaking for 90 min at room temperature. Solutions were filtered through multiscreen solubility filter plate and the filtrate analyzed for compound concentration by HPLC-UV/PDA or LC-MS/MS.

MDR1 = test: in vitro; assay type: in vitro ADME; details: dog, MDCK-MDR1; for Papp A→B: compound added on apical side (A-B), read-out: MDCK A-B permeability; for Papp B→A: compound added on basal side (B-A), read-out: MDCK B-A permeability
Description: MDCK cells transfected with MDR1 were maintained in monolayer culture for 3–4 days in 24-well transporter plates. Cultures with average TEER values of 600–800 Ohm x cm^2 were utilized for experimentation. Test compound was added to either the apical or basal membrane chamber and then efflux across the monolayer was monitored by quantifying compound with LC-MS/MS.

AMPA receptor = test: AMPA receptor-mediated synaptic currents of pyramidal neurons in mouse visual cortex slices; assay type: cell-based; details: in the presence of 50 μM compound; controls 118±16 pA
Description: […]. […] […].
Wild-type (WT) mice and GRIN2A knock-out (KO) male mice were bred in house at Boston Children’s Hospital. The GRIN2A-KO colony was derived from mice originally obtained from M. Mishina (1995, University of Tokyo, Japan). All procedures using these mice were approved by the Boston Children’s Hospital Institutional Animal Care and Use Committee. Methods used were previously described in [30] and are summarized below.
Coronal visual cortical slices ([…]) were prepared from postnatal day (P)22–31 male mice following decapitation under isoflurane anesthesia. […]
Layer 2/3 pyramidal neurons were selected based on morphology under infrared differential interference contrast microscopy and their identity confirmed from a brief train of action potentials recorded prior to initiating voltage-clamp recordings. […] All data were acquired and analyzed using custom- made procedures in Igor-Pro Software (WaveMetrics, Lake Oswego, Oregon).
To estimate the relative contribution of NMDA and AMPA receptors to the synaptic current, the amplitude was measured at the time of the peak current at -100 mV for the AMPA receptor-mediated current and at the time point after the current at -100 mV had decayed to less than 5% of its peak amplitude for the NMDA receptor-mediated current. […]

[2] = Stability in pooled human liver microsomes; assay type: in vitro ADME; details: pH 7.4, 1 μM compound, read-out: HLM t½
Description: Human liver microsomes were prepared from pooled cryopreserved human hepatocytes (HEP10™, catalog number HMCS10, lot # HuE106, Life Technologies Corporation, Grand Island, NY). According to the vendor, the liver cells from lot HuE106 were derived from tissue obtained from accredited institutions. Consent was obtained by these institutions from the donors or the donor’s legal next of kin, for use of the tissue and its derivatives for research purposes. Microsomes were diluted into 66.7 mM potassium phosphate buffer (pH 7.4) to an approximate concentration of 0.5 mg/mL of microsomal protein. Test compounds (1 μM) were pre-incubated with the microsomes for 5 min at 37°C and then the reaction initiated by addition of […]. After different times up to 30 min, the reactions were quenched, clarified by centrifugation and remaining compound quantified by LC-MS/MS.

uninjected oocytes = test: Endogenous currents in control (uninjected) oocytes; assay type: cell-based, Xenopus; details: concentrations up to 10 μM
Description: The cells were then gently aspirated with a Pasteur pipette to remove the follicular tissue; this was followed by washing three times with OR-2 to remove all traces of collagenase. The oocytes were then washed in ND-96 (96 mM NaCl, 2 mM KCl, 1.8 mM CaCl2, 1 mM MgCl2, 5 mM HEPES, 50 ng/L gentamycin, 100 units/ml penicillin and 100 μg/ml streptomycin; pH 7.6) three times and this was followed by incubation in ND-96 at room temperature with mild agitation for 15 minutes; subsequently they were stored for at least 2 hours at 16°C before sorting and selection for injection. Oocytes selected for injection were incubated overnight in ND-96 at 16°C.
Electrodes were filled with 3 M KCl and had resistances that ranged from 0.2–1 MΩ. All measurements were made at a holding potential of -40 mV. Cells were continuously perfused with oocyte recording solution containing 90 mM NaCl, 1 mM KCl, 0.5 mM BaCl2, and 10 mM HEPES (Ph 7.4). […] Co-agonists were applied until a plateau was reached, and test compounds were then added in the continued presence of co-agonists until a new plateau was reached. […] Fraction of current remaining was calculated as [(current in presence of test compound–background current) / (co-agonist current–background current)] and IC50 values were computed using Prism 6.0 (Graphpad).

[3] = test system: NMDA receptor (NMDA + glycine evoked currents); test: Whole-cell manual patch clamp of rat cortical neurons in primary culture; assay type: cell-based; details: 10 μM compound; NMDA 100 μM + glycine 10 μM; +40 mV; mean ± SEM
Description: Cortical neurons isolated from E18 rat embryos and cultured for two weeks were examined in whole-cell manual patch clamp experiments.
Cryopreserved E-18 rat cortical neurons (GIBCO A10840-02) were purchased from Life Technologies Italia (Monza, Italy).
Cortical neurons were thawed and plated at 5x10^4 or 10x10^4 cells/well in 35 x 100 mm tissue culture dishes containing poly-D-lysine treated glass coverslips, and maintained in the media and conditions recommended by the manufacturer for 13–15 days. […] Glycine (10 μM) was added in the extracellular solution or in the NMDA solution. Cells were patch clamped in the whole-cell configuration with a holding potential of -70 mV stepping once every minute to +20 or +40 mV for 10 s. Starting 1.5 s after each voltage step, 100 μM NMDA plus 10 μM glycine was applied using rapid local perfusion (RSC-200, Bio-Logic Science Instruments, Claix, France). Currents were evaluated at peak during the NMDA application, and current inhibition was computed using Prism software (GraphPad) once steady state was achieved.

[4] = inhibition of Ca2+ response, HEK cells, glutamate and glycine 3 μM each, read-out: GluN2B IC50 (nM) ± SEM (n)
[5] = inhibition of Ca2+ response, HEK cells, glutamate and glycine 3 μM each, read-out: GluN2D IC50 (nM) ± SEM (n)
[6] = inhibition of Ca2+ response, HEK cells, glutamate and glycine 3 μM each

O=C(O)c1cc(=O)c2c(Cl)cc(Cl)cc2[nH]1 [5,7-DCKA, reference compound]
IC50 (human GluN2B; [4]): 8400 ± 1400 nM | IC50 (human GluN2D; [5]): > 10000 nM | IC50 (human GluN2A; [6]): 1170 ± 230 nM

N[C@@H](Cc1ccccn1)c1ccccc1 [ARL-15896, reference compound]
IC50 (human GluN2B; [4]): 510000 nM | IC50 (human GluN2D; [5]): 25000 nM

C[C@@H]([C@@H](O)c1ccc(O)cc1)N1CCC(O)(c2ccccc2)CC1 [CP-101,606, reference compound]
IC50 (human GluN2D; [5]): > 10000 nM | IC50 (human GluN2A; [6]): > 10000 nM

NC(CCCP(=O)(O)O)C(=O)O [D-AP5]
block of fEPSPs by D-AP5 at the conclusion of each experiment (NMDA receptor): completely blocked

C[C@]12N[C@H](Cc3ccccc31)c1ccccc12 [MK-801, reference compound]
IC50 (human GluN2B): 75 ± 4 nM | IC50 (human GluN2D): 87 ± 3 nM

Cc1ncc(CNC(=O)c2cnc(CNS(=O)(=O)c3ccc(F)c(Cl)c3)cn2)s1 [MPX-004, 5-(((3-chloro-4-fluorophenyl)sulfonamido)methyl)-N-((2-methylthiazol-5-yl)methyl)pyrazine-2-carboxamide]
effects on binding of ligands in the remainder of the panel [1]: less than 25% | inhibition at 1 µM (5-HT2A): 31% | inhibition at 1 µM (EP4): 27% | inhibition at 1 µM (5-HT1B): 35% | solubility at 90 min (Kinetic solubility): 16 µM (≈ 7.29 µg/mL) | Papp A→B (MDR1): 17.3 ×10⁻⁶ cm/s | Papp B→A (MDR1): 66.1 ×10⁻⁶ cm/s | AMPA receptor-mediated synaptic currents (AMPA receptor): 118±21 pA | half-life at 1 μM [2]: 53 min

Cc1ncc(CNC(=O)c2cnc(CNS(=O)(=O)c3ccc(F)c(F)c3)c(C)n2)s1 [MPX-007]
inhibition of currents in control (uninjected) oocytes (uninjected oocytes): no effect; also recorded: No inhibition | solubility at 90 min (Kinetic solubility): 68 µM (≈ 30.8 µg/mL) | Papp A→B (MDR1): 14.2 ×10⁻⁶ cm/s | Papp B→A (MDR1): 76.8 ×10⁻⁶ cm/s | half-life at 1 μM [2]: 63 min

O=C(O)[C@@H]1[C@H](C(=O)O)NCCN1C(=O)c1ccc2c(ccc3ccccc32)c1 [PPDA, reference compound]
IC50 (human GluN2B; [4]): 8490 ± 1000 nM | IC50 (human GluN2D; [5]): 34800 nM | IC50 (human GluN2A; [6]): 4860 ± 960 nM

O=C(NNC(=O)c1ccc(CNS(=O)(=O)c2ccc(F)c(Cl)c2)cc1)c1ccccc1 [TCN-201, 3-chloro-4-fluoro-N-[4-[[2-(phenylcarbonyl)hydrazino]carbonyl]benzyl]benzenesulfonamide, reference compound]
solubility at 90 min (Kinetic solubility): 8 µM (≈ 3.7 µg/mL) | Papp A→B (MDR1): 7.5 ×10⁻⁶ cm/s | Papp B→A (MDR1): 58.9 ×10⁻⁶ cm/s | half-life at 1 μM [2]: 19 min

Cc1ncc(CNC(=O)c2ccc(CNS(=O)(=O)c3ccc(F)c(Cl)c3)cc2)s1 [compound 2]
inhibition at 10 µM (human GluN2B): 4 ± 1% | inhibition at 10 µM (human GluN2D): -6 ± 2% | inhibition at 10 µM (human GluN2A): > 95% | IC50 (human GluN2A): 398 ± 90 nM

Cc1ncc(CNC(=O)c2ccc(CNS(=O)(=O)c3ccc(F)c(Cl)c3)cn2)s1 [compound 3]
inhibition at 10 µM (human GluN2B): 1 ± 1% | inhibition at 10 µM (human GluN2D): -6 ± 2% | inhibition at 10 µM (human GluN2A): > 95% | IC50 (human GluN2A): 75 ± 13 nM

Cc1ncc(CNC(=O)c2cnc(CNS(=O)(=O)c3ccc(F)c(F)c3)cn2)s1 [compound 5]
inhibition at 10 µM (human GluN2B): -8 ± 2% | inhibition at 10 µM (human GluN2D): -10 ± 5% | inhibition at 10 µM (human GluN2A): > 95% | IC50 (human GluN2A): 116 ± 22 nM

Cc1ncc(CNC(=O)c2ccc(CNS(=O)(=O)c3ccc(F)c(F)c3)cn2)s1 [compound 6]
inhibition at 10 µM (human GluN2B): -1 ± 1% | inhibition at 10 µM (human GluN2D): -13 ± 10% | inhibition at 10 µM (human GluN2A): > 95% | IC50 (human GluN2A): 158 ± 30 nM

Cc1ncc(CNC(=O)c2cnc(CNS(=O)(=O)c3ccc(F)c(Cl)c3)c(C)n2)s1 [compound 7]
inhibition at 10 µM (human GluN2B): -8 ± 1% | inhibition at 10 µM (human GluN2D): -1 ± 2% | inhibition at 10 µM (human GluN2A): > 95% | IC50 (human GluN2A): 18 ± 2 nM

Cc1ncc(CNC(=O)c2cnc(CNS(=O)(=O)c3ccc(Cl)c(F)c3)c(C)n2)s1 [compound 8]
inhibition at 10 µM (human GluN2B): -7 ± 2% | inhibition at 10 µM (human GluN2D): 6 ± 6% | inhibition at 10 µM (human GluN2A): > 95% | IC50 (human GluN2A): 971 ± 242 nM

Cc1ncc(CNC(=O)c2cnc(CN(C)S(=O)(=O)c3ccc(F)c(Cl)c3)c(C)n2)s1 [compound 10]
inhibition at 10 µM (human GluN2A): > 95% | IC50 (human GluN2A): 242 ± 61 nM

Ro 25–6981
block of NMDA + glycine evoked currents in rat cortical neurons [3]: 72 ± 5% and ~ 70%
